Where only a bound is given, the exact number is not on record here.

The nature of the test: Induction of human SERT-dependent cytotoxicity in SERT expressing HEK293 cells after 48 hrs by neutral red assay.

By EC50 is commonly meant the concentration at which the effect is half-maximal. The low end stands for higher potency in that assay, the high end for lower potency in that assay. `CCSc1ccc(CC(CC)NC)cc1` (stereo unspecified) [2-N-Methylamino-1-(4-ethylthiophenyl)butane] returned an EC50 of over 100 µM.

Values taken from BindingDB's records for doi:10.1016/j.ejmech.2009.07.027 (Trinity College, 2009).
